The subject of one data set is PC-3. Briefly: Cytotoxicity against human PC3 cells at 1 uM after 72 hrs by MTS assay. To be noted: PC-3, 72 h. The class given is functional. Background: Formazan colour is commonly taken as a measure of viable cells.
Data set [1] concerns Human immunodeficiency virus 2. In words: microbe, parasite or virus in culture. Conditions: Human immunodeficiency virus 2, ISOLATE ROD, MT4, 120 h.
The test system of a further data set is HCT-116. In words: Cytotoxicity against human HCT116 cells at 1 uM after 72 hrs by MTS assay. The class given is functional. Conditions: HCT-116, 72 h.
Data set [2] in a line: in vitro. To be noted: human, MT4 cells.
The next data set deals with MCF7. Briefly: Cytotoxicity against human MCF7 cells at 1 uM after 72 hrs by MTS assay. The class given is functional. Conditions: MCF7, 72 h.
Data set [3] concerns Human immunodeficiency virus 1. In words: microbe, parasite or virus in culture. Conditions: Human immunodeficiency virus 1, 3B, MT4, 120 h.
The nature of data set [4]: in vitro. To be noted: human, MT4 cells. The source holds these as a separate data set.
A further data set concerns Chikungunya virus. Briefly: microbe, parasite or virus in culture. To be noted: strain 899, Vero.
A short description of data set [5]: in vitro. Conditions: monkey, Vero cells.
Data set [6] can be described thus: in vitro. To be noted: chlorocebus sabaeus, Vero cells.
In a further data set the test system is Sindbis virus. Briefly: microbe, parasite or virus in culture. To be noted: strain HRsp, Vero.
Another data set deals with Semliki Forest virus. In words: microbe, parasite or virus in culture. Conditions: strain Vietnam, Vero.
Data set [7] in a line: in vitro. Conditions: human, MT4 cells. This is another data set of the same source.
A short description of data set [8]: in vitro. Conditions: monkey, Vero cells. The source holds these as a separate data set.

In general, inhibition refers to how much of the control response was suppressed. One may read the pEC50 as the EC50 on a negative log10 scale, so that one unit is a factor of ten. The CC50 is the concentration at which the toxic effect on the cells reaches its halfway point. Low readings indicate harm at low concentration, high ones better tolerance by the cells.

pEC50: −log10 of the molar value. A value given as a limit tells only on which side of the number the result lay.

As for `CCC(C)C(=O)O[C@@]12[C@H](OC(C)=O)[C@@H](C)[C@]3(O)[C@@H]4C=C(C)C(=O)[C@@H]4CC(CO)=C[C@H]3[C@@H]1C2(C)C` (stereo not given in full), the inhibition at 1 µM in the data set on PC-3, with HCT-116 and in the data set with MCF7 was < 40% each time. Also, the pEC50 in data set [1] is 4.89; in data set [3], < 4.07; in the data set on Chikungunya virus, 4.11. The selectivity ratio in the data set “in vitro [2]” was 4; in “in vitro [5]”, 1.4. Also, the CC50 at 72 h stood at 85 µM in the data set “in vitro [4]” and 105 µM in “in vitro [6]”.
Consider `CCC(C)C(=O)O[C@@]12[C@H](OC(C)=O)[C@@H](C)[C@@]3(O)[C@@H](C=C(CO)C[C@]4(O)C(=O)C(C)=C[C@@H]34)[C@@H]1C2(C)C` (stereo not given in full), for which the inhibition at 1 µM with PC-3, in the data set on HCT-116 and in the data set on MCF7 was < 40% each time. The pEC50 was < 3.59 in the data set on Sindbis virus; 6.97 in data set [1]; 6.57 in [3]; < 3.59 in the data set with Semliki Forest virus; 5.48 in the data set with Chikungunya virus. The selectivity ratio came out at 949 in the data set “in vitro [2]”, 376 in the data set “in vitro [7]” and 41 in the data set “in vitro [5]”. The CC50 at 72 h is 102 µM in “in vitro [4]” and 134 µM in the data set “in vitro [6]”.
In the case of `CC/C=C/C=C/C=C\C(=O)O[C@@H]1[C@@H](C)[C@]2(O)[C@@H]3C=C(C)C(=O)[C@@H]3CC(CO)=C[C@H]2[C@@H]2C(C)(C)[C@]12OC(=O)CCC`, the inhibition at 1 µM in the data set on PC-3, with HCT-116 and in the data set with MCF7 was < 40% throughout. For the same molecule, the pEC50 in the data set with Sindbis virus was 5.30; in data set [1], 6.76; in data set [3] it was 6.63; in the data set on Semliki Forest virus it was < 3.75; in the data set with Chikungunya virus, 5.85. The selectivity ratio in “in vitro [2]” came out at 33; in the data set “in vitro [8]”, 1.4; in the data set “in vitro [7]” it was 36; in the data set “in vitro [5]”, 5.1. In addition, the CC50 at 72 h is 8.4 µM in the data set “in vitro [4]” and 7.1 µM in the data set “in vitro [6]”.
Regarding `CCCCCCCCC(=O)/C=C/C=C/C=C/C(=O)O[C@@]12C[C@@H](C)[C@@]3(O)[C@@H](C=C(CO)C[C@]4(O)C(=O)C(C)=C[C@@H]34)[C@@H]1C2(C)C`, the inhibition at 1 µM in the data set with PC-3, in the data set with HCT-116 and with MCF7 was < 40% throughout. The pEC50 was 4.96 with Sindbis virus; 7.74 in data set [1]; 7.37 in data set [3]; < 3.77 in the data set with Semliki Forest virus; 5.66 in the data set with Chikungunya virus. Further, the selectivity ratio in “in vitro [2]” turned out to be 1430; in the data set “in vitro [8]”, 1.2; in “in vitro [7]”, 299; in the data set “in vitro [5]”, 5.9. Moreover, the CC50 at 72 h in “in vitro [4]” and in “in vitro [6]” was 13 µM in each case.
Turning to `CCC(C)C(=O)O[C@@]12C[C@@H](C)[C@@]3(O)[C@@H](C=C(CO)C[C@]4(O)C(=O)C(C)=C[C@@H]34)[C@@H]1C2(C)C` (stereo not given in full), the inhibition at 1 µM in the data set on PC-3, in the data set with HCT-116 and in the data set on MCF7 was < 40% each time. The pEC50 in the data set on Sindbis virus is < 3.54; in [1] it was 7.25; in data set [3], 6.89; in the data set on Semliki Forest virus it was < 3.54; with Chikungunya virus, 5.92. Moreover, the selectivity ratio is 2060 in “in vitro [2]”, 899 in “in vitro [7]” and > 240 in the data set “in vitro [5]”. In addition, the values for the CC50 at 72 h in the data set “in vitro [4]” and in the data set “in vitro [6]” were 116 µM and > 289 µM, respectively.
Consider `CCN(CC)CCCC(C)Nc1ccnc2cc(Cl)ccc12` (stereo not given) [CHLOROQUINE], for which the midpoint of cytotoxicity in the data set “in vitro [6]”, the CC50 at 72 h, lay at 89 µM.
For the molecule `O=c1[nH]cnc2c1ncn2[C@H]1CC[C@@H](CO)O1` [DIDANOSINE], the figures for the pEC50 in [1] and in data set [3] were 5.02 and 4.97, respectively. For the same molecule, the selectivity ratio in the data set “in vitro [2]” was > 5.2; in the data set “in vitro [7]”, > 4.6. Besides, in the data set “in vitro [4]”, the CC50 at 72 h is > 50 µM.
In the same order, the values of `Nc1ccn([C@@H]2CS[C@H](CO)O2)c(=O)n1` [LAMIVUDINE] are 4.81, 5.41, > 5.6, > 22 and > 87 µM.
Consider `Cc1ccnc2c1NC(=O)c1cccnc1N2C1CC1` [NEVIRAPINE], for which the negative logarithm of the EC50 (pEC50) in [1] is < 4.82; in [3] it was 8.00. The half-maximal cytotoxic concentration (CC50) at 72 h in the data set “in vitro [4]” is > 15 µM. Also, the selectivity ratio in “in vitro [7]” stood at 148.
As to `Cc1cn([C@H]2C[C@H](N=[N+]=[N-])[C@@H](CO)O2)c(=O)[nH]c1=O` [ZIDOVUDINE], the CC50 at 72 h in the data set “in vitro [4]” is > 25 µM.

The record behind these values is ChEMBL document CHEMBL3580645, “Antiviral Activity of Flexibilane and Tigliane Diterpenoids from Stillingia lineata” (J Nat Prod, 2015).
